Where two headings read alike, the source gives them in different places.
Assays:
Assay type in all cases: cell-based, human
[1] = test system: CD4+CFSElow proliferating T cells; assay: Intracellular IL-17 and IFN-γ staining of proliferating antigen-specific CD4+ T cells; settings: for frequencies of IL-17+ single- and IL-17+IFN-γ+ double-positive (Th17) cells: NMO patients in comparison to HC, PMA/Ionomycin 5 h, FIG. 4A, B
Procedure: (§1) Single-cell suspensions were incubated with human serum to prevent nonspecific antibody binding, then stained with anti-CD3, -CD4, -CD8, -CD25, -MHC Class II, -CD40, -CD80, and -CD86 (eBioscience and BD Bioscience). Intracellular cytokine production by CD4^+ T cells and APC was analyzed by monitoring the expression of IFN-γ, IL-17, IL-6, IL-1β and IL-10 (1:100) (eBioscience). Foxp3 staining was performed according to the manufacturer's protocol (eBioscience). For intracellular cytokine staining, T cells were stimulated with phorbol 12-myristate 13-acetate (PMA, 50 ng/ml) plus ionomycin (500 ng/ml) in the presence of GolgiStop (1 μl/ml) (BD Biosciences). CD14^+ cells were stimulated with LPS (1 μg/ml; Sigma-Aldrich) for 4 or 20 h in the presence of GolgiStop. Cells were analyzed by flow cytometry on a FACS Canto flow cytometer (BD Biosciences).
FIG. 4A-4D. […] PBMC were stained with CFSE and cultured for 10 d with AQP4 peptides (10 μg/ml) or rhAQP4 (5 μg/ml). (Panel A) CD4^+CFSE^low proliferating T cells were analyzed for IL-17 and IFN-γ production by intracellular staining after stimulation with PMA/Ionomycin for 5 h. (Panel B) Frequencies of IL17^+IFN-γ^−, IL17^+IFN-γ^+ and IL17^−IFN-γ^+ were examined among proliferating p61-80-specific CD4^+ T cells (n=8 NMO and n=5 HC), p156-170-specific CD4^+ T cells (n=6 NMO and n=3 HC) and rhAQP4-specific CD4^+ T cells (n=6 NMO and n=5 HC). Frequencies of IL-17- and IFN-γ-single positive T cells were used to calculate Th17/Th1 ratio. (Panel C) PBMC were examined by FACS for expression of Treg markers including CD4, CD127 and CD25. (Panel D) CFSE-labeled PBMC were cultured for 10 d with AQP4 p61-80 (10 μg/ml) or rhAQP4 (5 μg/ml). Proliferating CD4^+ T cells (CDI>2) were examined by FACS for expression of CD25^high, defined as the top half of CD25^+ cells, and Foxp3 (n=8 NMO p61-80, n=6 HC p61-80, n=7 NMO rhAQP4 and n=5 HC rhAQP4). Box-and-whisker plots include the median, distribution and range. **P<0.01 Mann-Whitney U test.

[2] = test system: T cells initially stimulated with AQP4 p63-76 or ABC-TP
[3] = test system: T cells from NMO patients; assay: T cell proliferation by CFSE dilution (cell division index); settings: for proliferative T cell response to individual AQP4 peptides: NMO patients, CFSE dilution, peptides 10 μg/ml, 10 d, FIG. 1D
[4] = test system: peripheral blood mononuclear cells (PBMC); assay: PBMC proliferation by [3H]thymidine incorporation, primary cultures; settings: for proliferative responses of NMO patients to individual AQP4 peptides: peptides 10 μg/ml, 6 d, [3H]thymidine, FIG. 1B
[5] = test system: AQP4 p61-80-specific T cells; assay: Epitope mapping: recall proliferation of AQP4 p61-80-reactive T cells to truncated peptides; settings: NMO patients, peptides 10 μg/ml, irradiated autologous APC, [3H]thymidine after 3 d, FIG. 3A, 3B
[6] = test system: T cells initially stimulated with rhAQP4; assay: Antigen recall proliferation after initial stimulation with rhAQP4
[7] = test system: proliferating CD4+ T cells; assay: Treg (CD25high Foxp3) frequency among proliferating antigen-specific CD4+ T cells; settings: NMO patients versus HC, FIG. 4D
Procedure: as §1
FIG. 4A-4D. […] PBMC were stained with CFSE and cultured for 10 d with AQP4 peptides (10 μg/ml) or rhAQP4 (5 μg/ml). (Panel A) CD4^+CFSE^low proliferating T cells were analyzed for IL-17 and IFN-γ production by intracellular staining after stimulation with PMA/Ionomycin for 5 h. (Panel B) Frequencies of IL17^+IFN-γ^−, IL17^+IFN-γ^+ and IL17^−IFN-γ^+ were examined among proliferating p61-80-specific CD4^+ T cells (n=8 NMO and n=5 HC), p156-170-specific CD4^+ T cells (n=6 NMO and n=3 HC) and rhAQP4-specific CD4^+ T cells (n=6 NMO and n=5 HC). […]

[8] = PBMC from 4 NMO patients, primed 10 d at 10 μg/ml, [3H]thymidine after 3 d, FIG. 3E

How did the “frequencies of IL-17+ single- and IL-17+IFN-γ+ double-positive (Th17) cells” value [1] turn out when “AGHGLLVELIITFQL (synthetic poypeptide) [p156-170]” was run?
The value was “No Th17 bias”.

What about the “recall proliferation of ABC-TP p204-217-primed T cells” value [2, 8] of the same substance?
Its value is “not observed”.

What about the “recall proliferation of AQP4 p63-76-primed T cells” value [2, 8] of the same substance?
The value was “not observed”.

And the “proliferative T cell response to individual AQP4 peptides” value (from here on “proliferative T cell response”) [3]?
Its value is “T cell responses were observed”.

What about the “proliferative responses of NMO patients to individual AQP4 peptides” value (from here on “proliferative responses of NMO patients”) [4] of the same substance?
Its value is “T cell determinants were identified”.

How did the “proliferation of AQP4 p61-80-specific T cells to truncated peptides” value (from here on “proliferation … to truncated peptides”) [5] turn out when “DMVLISLCFGLS (synthetic poypeptide) [p69-80]” was run?
Its value is “less efficiently than p63-80”.

Which “proliferation … to truncated peptides” value [5] does the source give for “EKPLPVDMVLISLC (listed as Homo sapiens) [p63-76]” here?
Its value is “nearly as efficiently”.

What about the “recall proliferation of ABC-TP p204-217-primed T cells” value [2, 8] of the same substance?
Its value is “vice versa”.

Which “recall proliferation of AQP4 p63-76-primed T cells” value [2] does the source give for FIILPVSMVLISLV [ABC-TP p204-217] here?
Its value is “proliferated”.

And the “proliferation of T cells from NMO patients” value [3]?
Its value is “proliferated significantly”.

Which “proliferative responses of NMO patients” value [4] does the source give for “GILYLVTPPSVVGGLGVTMV (synthetic poypeptide) [p131-150]” here?
Its value is “T cell determinants were identified”.

“GTEKPLPVDMVL (synthetic poypeptide) [p61-72]” was tested. Which “proliferation … to truncated peptides” value [5] did it give?
The value was “not”.

Which “proliferation … to truncated peptides” value [5] does the source give for “GTEKPLPVDMVLIS (synthetic poypeptide) [p61-74]” here?
Its value is “not”.

How did the “proliferation … to truncated peptides” value [5] turn out when “GTEKPLPVDMVLISLC (synthetic poypeptide) [p61-76]” was run?
Its value is “proliferated”.

How did the “proliferation … to truncated peptides” value [5] turn out when “GTEKPLPVDMVLISLCFG (synthetic poypeptide) [p61-78]” was run?
The value was “proliferated”.

How did the “proliferation … to truncated peptides” value [5] turn out when “PLPVDMVLISLCFGLS (synthetic poypeptide) [p65-80]” was run?
The value was “less efficiently than p63-80”.

For “PVDMVLISLCFGLS (synthetic poypeptide) [p67-80]”, which “proliferation … to truncated peptides” value [5] is on record?
The value was “less efficiently than p63-80”.

What does the source list for “RFKEAFSKAAQQTKGSYMEV (synthetic poypeptide) [p261-280]”?
proliferative T cell response to individual AQP4 peptides [3]: T cell responses were observed; proliferative responses of NMO patients to individual AQP4 peptides [4]: not detected

How did the “proliferative responses of NMO patients” value [4] turn out when “SMNPARSFGPAVIMGNWENH (synthetic poypeptide) [p211-230]” was run?
The value was “T cell determinants were identified”.

Which “proliferative T cell response” value [3] does the source give for “p11-30: synthetic overlapping AQP4 20-mer peptide, amino acids 11-30 of human AQP4 (GKCGPLCTRENIMVAFKGVW; UniProt P55087 11-30, looked up, fragment)” here?
Its value is “T cell responses were observed”.

What about the “proliferative responses of NMO patients” value [4] of the same substance?
The value was “not detected”.

“p21-40: synthetic overlapping AQP4 20-mer peptide, amino acids 21-40 of human AQP4 (NIMVAFKGVWTQAFWKAVTA; UniProt P55087 21-40, looked up, fragment)” was tested. Which “proliferative T cell response” value [3] did it give?
The value was “T cell responses were observed”.

And the “proliferative responses of NMO patients” value [4]?
Its value is “T cell determinants were identified”.

What does the source list for “p61-80: peptide of amino acids position 61 to position 80 of human AQP-4 protein sequence (GTEKPLPVDMVLISLCFGLS)”?
immunodominance among peptides examined [6]: clearly immunodominant; frequencies of IL-17+ single- and IL-17+IFN-γ+ double-positive (Th17) cells [1]: significantly higher frequencies; Th17/Th1 ratio ([1]; NMO patients versus HC): elevated; proportion of CD4+ T cells that responded ([3]; NMO patients versus HC, FIG. 1E): higher in NMO patients than HC; proliferative T cell response to individual AQP4 peptides [3]: robust proliferative T cell response; proliferative responses of NMO patients to individual AQP4 peptides [4]: T cell determinants were identified

What does the source list for “rhAQP4: Full length recombinant human AQP4 (1-323) expressed in Pichia pastoris”?
frequencies of IL-17+ single- and IL-17+IFN-γ+ double-positive (Th17) cells [1]: not significant; frequency of Treg among antigen-specific T cells [7]: significantly reduced frequency

Which “response to tetanus toxoid, HC compared with NMO patients” value ([4]; lymphocytes from healthy controls) does the source give for “tetanus toxoid: Tetanus toxoid obtained from List Biological Laboratories, Inc. [reference compound]” here?
The value was “comparable responses”.

Reference: patent publication US9234017B2, “Aquaporin-4 peptide compositions and methods of use thereof” (The Regents of the University of California, priority 2012, dated 2016)
